According to ChEMBL document CHEMBL1201862, “PubChem BioAssay data set” (2004):
Activity calls are given as the source filed them.

How the values were obtained:
Mu-type opioid receptor = Mu-type opioid receptor (Homo sapiens, UniProt P35372); experiment: SAR Analysis of Antagonists of the MOR Receptor using an Image-Based Assay - Set 3. [Related pubchem assays (depositor defined):AID1777, AID1785, AID1786, AID1966, AID2133, AID2136, AID2284, AID2285, AID2420]; type: functional
[1] = target: T1, Kappa-type opioid receptor (Homo sapiens, UniProt P41145); experiment: SAR analysis of Antagonists of the Kappa Opioid Receptor (KOR) using an Image-Based Assay - Set 3. [Related pubchem assays (depositor defined):AID1777, AID1785]; type: functional
[2] = target: Delta-type opioid receptor (Homo sapiens, UniProt P41143); experiment: SAR Analysis of Antagonists of the DOR Receptor using an Image-Based Assay - Set 3. [Related pubchem assays (depositor defined):AID1777, AID1785]; type: functional;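 note: U2OS cells expressing DOR1 and beta-arrestin GFP stimulated with 100 nM SNC80; imaging of GFP-tagged beta-arrestin moving into spots after receptor activation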
[3] = target: T1, Kappa-type opioid receptor; experiment: SAR analysis of small molecule antagonists of the kappa opioid receptor via a luminescent beta-arrestin assay - Set 3. [Related pubchem assays (depositor defined):AID1777, AID1778, AID1785, AID1786, AID1966, AID2133, AID2136, AID2285, AID2495]; type: functional
Melanocortin receptor 4 = Melanocortin receptor 4 (Homo sapiens, UniProt P32245); type: functional, cell-based;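 note: Cell-based assay with luminescence read-out, confirmatory dose-response testing for agonist activity of biased ligands at MC4R; human U2OS cells with tagged receptor and beta-arrestin; potency of agonists that increase receptor coupling to beta-arrestin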
[4] = HEK293 cell cytotoxicity, dose response, cytotoxicity control, plate reader, cherry-picked samples (AID 743446); type: functional, cell-based
[5] = target: T2, Ubiquitin-conjugating enzyme E2 N (Homo sapiens, UniProt P61088); type: functional;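 note: Dose-response confirmation in a TR-FRET assay detecting UBC13-driven polyubiquitin chain formation, inhibition measured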
T2 sequence (P61088 whole entry): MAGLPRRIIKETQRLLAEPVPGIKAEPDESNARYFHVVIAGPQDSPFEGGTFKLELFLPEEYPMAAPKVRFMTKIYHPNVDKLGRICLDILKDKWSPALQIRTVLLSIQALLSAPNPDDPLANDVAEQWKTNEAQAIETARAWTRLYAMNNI

Integrin alpha-4 = Integrin alpha-4 (Homo sapiens, UniProt P13612); experiment: VLA-4 integrin allosteric ligands, SAR follow-up, cell-based, LIBS antibody binding, flow cytometry (AID 488791); type: functional
[6] = LGR2 antagonists, dose response, cell-based, HEK293, CRE-luciferase reporter, cherry pick, set 2 (AID 743343); type: functional;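 note: transfected cells were stimulated with diluted bursicon conditioned medium after compound addition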
[7] = HepG2 cell cytotoxicity, dose response, cytotoxicity control, plate reader, cherry-pick, antagonist series (AID 743416); type: functional, cell-based
[8] = Luminescence Cell-Based Dose Retest to Confirm Inhibitors of Cancer Stem Cells. [Related pubchem assays (depositor defined):AID2717, AID2721]; type: functional; settings: Homo sapiens
[9] = A549 cell cytotoxicity, dose response, cytotoxicity control, plate reader, cherry-pick, antagonist series (AID 743412); type: functional, cell-based
[10] = MC4R antagonists, dose response, counter-screen for LGR2 antagonist project, cell-based, plate reader, cherry pick (AID 743444); type: functional;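 note: transfected HEK 293 cells stimulated with alpha-MSH peptide; potency of inhibitors of the alpha-MSH evoked signal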
[11] = target: Tyrosine-protein phosphatase non-receptor type 7 (Homo sapiens, UniProt P35236); experiment: SAR analysis of chemical inhibitors of HePTP using a Fluorescent assay - Set 2. [Related pubchem assays (depositor defined):AID1059, AID1077, AID1661, AID2085, AID521]; type: functional
[12] = target: Dual specificity protein phosphatase 3 (Homo sapiens, UniProt P51452); experiment: SAR VHR1 Fluorescent Assay for In Vitro dose response studies Set 2. [Related pubchem assays (depositor defined):AID1654, AID1661, AID1878]; type: functional
[13] = target: Eukaryotic translation initiation factor 4H (Homo sapiens, UniProt Q15056); experiment: human eIF4H binding inhibitors, primary screen, translation initiation inhibitor project, biochemical, uHTS, fluorescence polarization (AID 2012)
[14] = target: T3, Voltage-gated N-type calcium channel alpha-1B subunit/Amyloid beta A4 precursor protein-binding family A member 1 (Homo sapiens, UniProt Q00975+Q02410); type: protein assay
[15] = target: Polyadenylate-binding protein 1 (Homo sapiens, UniProt P11940); experiment: PABP poly(A) RNA binding inhibitors, primary screen, biochemical, fluorescence polarization, uHTS (AID 2014)
[16] = target: T3, Voltage-gated N-type calcium channel alpha-1B subunit/Amyloid beta A4 precursor protein-binding family A member 1; type: protein assay; remark: listed apart in the source
T-cell = experiment: inhibitors of CD8+ T cell–vesicle binding, dose response, mouse 2C CD8+ T cells, flow cytometry (AID 485284); type: functional
[17] = cytotoxicity toward NIH3T3 fibroblasts, dose response, counter-screen, cell-based, ATP luminescence, mouse fibroblasts (AID 2010); type: functional;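 note: cells exposed to compound for about 90 hours before reading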
HEK293 [18] = experiment: cells; type: functional, cell-based; settings: Homo sapiens
[19] = C. albicans growth with fluconazole, confirmation, fluorescence, retest (AID 2467); type: functional, cell-based
[20] = inhibitors of intracellular T. cruzi replication, confirmation, NIH3T3 host cells, beta-gal luminescence (AID 2044); type: functional, cell-based;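 note: intracellular parasites grown in NIH/3T3 mouse fibroblasts as host cells; luminescent beta-galactosidase reporter signal from transgenic T. cruzi replicating inside host cells; inhibitors lower the luminescence signal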
BJ [21] = experiment: cytotoxicity toward BJ-TERT-LT-ST fibroblasts, dose response, cell-based, RAS-independent, luminescence (AID 1935); type: functional; settings: Homo sapiens;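 note: BJ fibroblasts immortalized with TERT plus LT and ST oncogenes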
[22] = target: Nucleotide-binding oligomerization domain-containing protein 2 (Homo sapiens, UniProt Q9HC29); experiment: NOD2 signaling inhibitors, cell-based, luminescence, uHTS, HEK293 (AID 1566); type: functional
[23] = cytotoxicity in HEK-293T cells, dose response, cytotoxicity control for TCR NF-kB inhibitor project, luminescence, T-cell screen hits (AID 489026); type: functional, cell-based;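 note: cells exposed to compound about 14 hours before the viability readout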
[24] = target: T4, Histone-lysine N-methyltransferase NSD2 (Homo sapiens, UniProt O96028); type: biochemical
T4 sequence (O96028 whole entry): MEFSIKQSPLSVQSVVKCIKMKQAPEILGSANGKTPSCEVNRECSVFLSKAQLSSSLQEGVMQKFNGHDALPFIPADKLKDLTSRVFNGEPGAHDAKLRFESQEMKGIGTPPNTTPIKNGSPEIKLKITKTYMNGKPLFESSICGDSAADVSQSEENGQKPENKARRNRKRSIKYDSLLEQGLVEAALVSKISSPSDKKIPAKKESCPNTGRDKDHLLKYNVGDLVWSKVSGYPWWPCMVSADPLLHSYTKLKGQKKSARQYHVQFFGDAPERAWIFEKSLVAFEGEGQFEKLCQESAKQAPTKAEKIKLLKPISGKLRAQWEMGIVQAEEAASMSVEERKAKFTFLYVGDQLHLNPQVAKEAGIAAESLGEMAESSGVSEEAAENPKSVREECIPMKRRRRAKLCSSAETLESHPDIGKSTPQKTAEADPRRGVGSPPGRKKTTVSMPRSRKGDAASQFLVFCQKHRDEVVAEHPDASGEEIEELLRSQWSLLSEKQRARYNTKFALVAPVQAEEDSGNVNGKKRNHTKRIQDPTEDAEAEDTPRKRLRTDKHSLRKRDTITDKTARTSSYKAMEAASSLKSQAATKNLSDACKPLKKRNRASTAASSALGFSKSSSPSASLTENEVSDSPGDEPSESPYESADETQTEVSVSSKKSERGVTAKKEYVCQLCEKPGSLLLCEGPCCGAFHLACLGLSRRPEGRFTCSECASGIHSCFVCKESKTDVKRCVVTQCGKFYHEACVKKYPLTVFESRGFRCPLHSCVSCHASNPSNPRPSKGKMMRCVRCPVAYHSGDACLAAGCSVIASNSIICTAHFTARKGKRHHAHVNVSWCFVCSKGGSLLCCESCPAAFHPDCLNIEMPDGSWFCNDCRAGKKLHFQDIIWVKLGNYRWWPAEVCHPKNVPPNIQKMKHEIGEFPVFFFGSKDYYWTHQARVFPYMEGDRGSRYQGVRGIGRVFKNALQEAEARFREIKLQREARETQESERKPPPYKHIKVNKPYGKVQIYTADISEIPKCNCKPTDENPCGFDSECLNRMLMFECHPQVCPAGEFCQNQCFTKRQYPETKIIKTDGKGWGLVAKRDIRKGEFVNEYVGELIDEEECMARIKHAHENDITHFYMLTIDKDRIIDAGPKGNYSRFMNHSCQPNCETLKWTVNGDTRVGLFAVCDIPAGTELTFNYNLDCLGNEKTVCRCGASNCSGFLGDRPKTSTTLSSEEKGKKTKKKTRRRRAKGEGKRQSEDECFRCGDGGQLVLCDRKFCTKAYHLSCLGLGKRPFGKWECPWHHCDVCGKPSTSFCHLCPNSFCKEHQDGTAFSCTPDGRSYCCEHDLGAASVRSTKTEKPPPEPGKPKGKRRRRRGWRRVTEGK

Nonstructural protein 1 = Nonstructural protein 1 (Influenza A virus, UniProt Q194T2); type: functional, Influenza A virus (A/California/07/2009(H1N1))
HEK293 [25] = experiment: NOD2 signaling inhibitors in MDP-stimulated cells, cell-based, uHTS, luminescence (AID 2001); type: functional; settings: Homo sapiens
BJ [26] = experiment: cytotoxicity toward BJ-TERT fibroblasts, dose response, cell-based, RAS-independent, luminescence (AID 1933); type: functional; settings: Homo sapiens
HEK293 [27] = experiment: cells; type: functional, cell-based; settings: Homo sapiens; remark: listed apart in the source
[28] = cytotoxicity toward DRD oncogenic fibroblasts, dose response, cell-based, non-viral oncogenic, luminescence (AID 1934); type: functional; settings: Homo sapiens
BJ [29] = experiment: cells; type: functional, cell-based; settings: Homo sapiens
[30] = NIH-3T3 fibroblast cytotoxicity, dose response, cytotoxicity control, cell-based, fluorescence, Alamar Blue, secondary assay (AID 2327); type: functional;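 note: NIH-3T3 mouse fibroblasts cultured with fluconazole at 8 µg/mL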
Protein S100-A4 = Protein S100-A4 (Homo sapiens, UniProt P26447); experiment: S100A4-myosin IIA binding inhibitor potency, dose response, biochemical, fluorescence polarization, cherry-picked hits (AID 687001); type: functional
[31] = target: G-protein coupled receptor 55 (Homo sapiens, UniProt Q9Y2T6); experiment: GPR55 agonists via beta-arrestin recruitment, primary screen, imaging, U2OS cells, beta-arrestin-GFP redistribution (AID 1961); type: functional
HEK293 [32] = experiment: NOD1 signaling inhibitors, primary screen, cell-based, luminescence, uHTS (AID 1578); type: functional; settings: Homo sapiens
HEK293 [33] = experiment: cells; type: functional, cell-based; settings: Homo sapiens; remark: listed apart in the source

T3 sequence (Q00975 whole entry): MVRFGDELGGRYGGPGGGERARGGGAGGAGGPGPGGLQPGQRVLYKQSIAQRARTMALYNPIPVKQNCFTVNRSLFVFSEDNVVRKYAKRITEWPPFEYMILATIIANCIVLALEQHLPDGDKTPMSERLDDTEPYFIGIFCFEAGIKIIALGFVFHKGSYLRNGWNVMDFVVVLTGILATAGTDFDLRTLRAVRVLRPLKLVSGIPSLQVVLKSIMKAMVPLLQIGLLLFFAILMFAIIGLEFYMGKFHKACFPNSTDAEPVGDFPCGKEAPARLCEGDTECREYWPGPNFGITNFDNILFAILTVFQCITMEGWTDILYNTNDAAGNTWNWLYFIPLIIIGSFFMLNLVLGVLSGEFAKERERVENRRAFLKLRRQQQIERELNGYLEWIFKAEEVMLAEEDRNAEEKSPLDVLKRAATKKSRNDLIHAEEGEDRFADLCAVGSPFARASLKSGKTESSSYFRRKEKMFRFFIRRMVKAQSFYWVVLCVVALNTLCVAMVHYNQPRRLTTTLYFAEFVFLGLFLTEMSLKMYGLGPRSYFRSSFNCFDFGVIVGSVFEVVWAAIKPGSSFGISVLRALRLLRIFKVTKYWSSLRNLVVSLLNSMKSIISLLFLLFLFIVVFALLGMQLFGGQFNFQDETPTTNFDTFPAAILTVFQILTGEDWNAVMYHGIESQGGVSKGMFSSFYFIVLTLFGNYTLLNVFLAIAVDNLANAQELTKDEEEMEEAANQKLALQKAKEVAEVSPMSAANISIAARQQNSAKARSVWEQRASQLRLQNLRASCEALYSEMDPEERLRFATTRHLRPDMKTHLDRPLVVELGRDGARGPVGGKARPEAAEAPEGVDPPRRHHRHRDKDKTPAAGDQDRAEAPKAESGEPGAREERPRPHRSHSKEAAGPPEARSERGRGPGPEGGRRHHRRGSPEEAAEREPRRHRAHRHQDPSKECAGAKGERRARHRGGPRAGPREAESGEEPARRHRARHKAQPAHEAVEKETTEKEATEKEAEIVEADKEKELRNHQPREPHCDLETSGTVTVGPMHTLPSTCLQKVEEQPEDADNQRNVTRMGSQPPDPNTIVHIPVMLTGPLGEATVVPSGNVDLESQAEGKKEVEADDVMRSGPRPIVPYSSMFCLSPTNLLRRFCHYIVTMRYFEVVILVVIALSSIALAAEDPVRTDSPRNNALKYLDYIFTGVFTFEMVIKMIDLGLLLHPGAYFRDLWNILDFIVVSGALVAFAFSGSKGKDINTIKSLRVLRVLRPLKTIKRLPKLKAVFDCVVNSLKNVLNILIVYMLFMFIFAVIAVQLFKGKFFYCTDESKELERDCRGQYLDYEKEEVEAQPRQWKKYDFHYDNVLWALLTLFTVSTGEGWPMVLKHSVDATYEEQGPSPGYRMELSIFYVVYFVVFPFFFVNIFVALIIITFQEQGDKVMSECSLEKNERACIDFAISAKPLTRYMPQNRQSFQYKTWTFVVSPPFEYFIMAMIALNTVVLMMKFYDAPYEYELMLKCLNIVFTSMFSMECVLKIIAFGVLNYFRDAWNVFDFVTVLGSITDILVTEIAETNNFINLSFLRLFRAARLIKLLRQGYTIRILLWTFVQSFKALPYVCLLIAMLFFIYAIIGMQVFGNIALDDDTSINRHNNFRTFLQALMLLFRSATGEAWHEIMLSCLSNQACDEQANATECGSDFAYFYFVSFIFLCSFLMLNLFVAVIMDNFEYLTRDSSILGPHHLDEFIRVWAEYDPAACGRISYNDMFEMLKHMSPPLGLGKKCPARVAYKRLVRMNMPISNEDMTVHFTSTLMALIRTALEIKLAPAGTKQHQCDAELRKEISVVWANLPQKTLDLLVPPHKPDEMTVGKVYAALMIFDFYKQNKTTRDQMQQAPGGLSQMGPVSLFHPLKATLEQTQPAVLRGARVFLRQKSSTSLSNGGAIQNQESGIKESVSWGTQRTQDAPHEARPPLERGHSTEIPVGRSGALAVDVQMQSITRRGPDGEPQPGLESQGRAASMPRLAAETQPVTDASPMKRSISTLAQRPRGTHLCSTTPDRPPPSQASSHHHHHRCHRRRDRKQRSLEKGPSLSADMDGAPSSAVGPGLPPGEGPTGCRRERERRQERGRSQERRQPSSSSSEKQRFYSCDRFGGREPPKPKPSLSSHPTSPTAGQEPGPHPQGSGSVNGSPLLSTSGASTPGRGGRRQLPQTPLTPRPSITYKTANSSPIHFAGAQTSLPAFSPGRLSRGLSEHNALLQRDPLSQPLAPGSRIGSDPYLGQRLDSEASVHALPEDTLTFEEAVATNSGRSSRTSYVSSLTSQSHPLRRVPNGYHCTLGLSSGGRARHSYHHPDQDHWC
T3 sequence (Q02410 whole entry): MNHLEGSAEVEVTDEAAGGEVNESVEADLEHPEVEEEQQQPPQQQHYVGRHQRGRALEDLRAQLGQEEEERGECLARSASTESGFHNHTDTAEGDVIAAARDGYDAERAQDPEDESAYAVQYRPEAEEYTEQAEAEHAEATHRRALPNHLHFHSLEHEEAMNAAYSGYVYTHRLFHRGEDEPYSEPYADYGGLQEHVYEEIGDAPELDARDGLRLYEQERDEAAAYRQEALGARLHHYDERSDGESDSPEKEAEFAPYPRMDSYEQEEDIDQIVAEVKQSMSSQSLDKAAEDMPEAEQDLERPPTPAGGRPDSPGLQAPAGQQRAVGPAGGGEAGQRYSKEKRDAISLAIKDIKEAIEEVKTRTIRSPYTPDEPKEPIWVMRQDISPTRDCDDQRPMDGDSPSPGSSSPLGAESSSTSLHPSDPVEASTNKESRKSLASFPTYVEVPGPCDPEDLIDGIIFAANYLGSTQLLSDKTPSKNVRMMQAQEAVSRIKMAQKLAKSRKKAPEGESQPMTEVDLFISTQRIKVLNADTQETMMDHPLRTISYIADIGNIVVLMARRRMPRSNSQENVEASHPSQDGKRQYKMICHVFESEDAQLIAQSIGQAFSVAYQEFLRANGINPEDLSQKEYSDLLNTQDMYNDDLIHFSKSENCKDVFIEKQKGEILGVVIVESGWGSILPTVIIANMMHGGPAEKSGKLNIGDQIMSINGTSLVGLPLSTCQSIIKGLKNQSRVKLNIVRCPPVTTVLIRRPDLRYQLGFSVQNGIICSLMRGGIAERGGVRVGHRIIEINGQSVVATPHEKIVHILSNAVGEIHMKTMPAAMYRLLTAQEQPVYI
T1 sequence (P41145 whole entry): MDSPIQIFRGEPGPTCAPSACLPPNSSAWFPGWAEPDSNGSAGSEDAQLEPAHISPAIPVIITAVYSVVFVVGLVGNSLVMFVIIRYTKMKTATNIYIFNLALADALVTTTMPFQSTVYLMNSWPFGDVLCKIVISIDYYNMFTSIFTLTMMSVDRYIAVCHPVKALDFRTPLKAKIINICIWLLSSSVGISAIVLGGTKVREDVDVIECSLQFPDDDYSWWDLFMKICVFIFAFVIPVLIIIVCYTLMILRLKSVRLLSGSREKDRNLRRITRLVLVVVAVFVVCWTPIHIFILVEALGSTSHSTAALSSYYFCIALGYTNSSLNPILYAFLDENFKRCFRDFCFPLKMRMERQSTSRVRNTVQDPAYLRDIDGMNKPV
Protein S100-A4, sequence (P26447 whole entry): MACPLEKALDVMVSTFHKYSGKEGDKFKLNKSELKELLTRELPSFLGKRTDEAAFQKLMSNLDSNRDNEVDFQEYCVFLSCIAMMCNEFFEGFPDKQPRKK
G-protein coupled receptor 55, sequence (Q9Y2T6 whole entry): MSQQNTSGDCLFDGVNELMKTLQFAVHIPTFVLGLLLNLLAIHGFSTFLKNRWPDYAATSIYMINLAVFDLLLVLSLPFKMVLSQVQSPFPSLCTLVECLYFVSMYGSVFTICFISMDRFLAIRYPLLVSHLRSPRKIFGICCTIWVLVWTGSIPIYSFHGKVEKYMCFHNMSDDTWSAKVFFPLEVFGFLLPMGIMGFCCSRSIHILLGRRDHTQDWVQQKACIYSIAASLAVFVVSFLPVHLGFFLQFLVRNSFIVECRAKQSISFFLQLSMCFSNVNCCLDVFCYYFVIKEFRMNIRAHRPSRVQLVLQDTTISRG
Dual specificity protein phosphatase 3, sequence (P51452 whole entry): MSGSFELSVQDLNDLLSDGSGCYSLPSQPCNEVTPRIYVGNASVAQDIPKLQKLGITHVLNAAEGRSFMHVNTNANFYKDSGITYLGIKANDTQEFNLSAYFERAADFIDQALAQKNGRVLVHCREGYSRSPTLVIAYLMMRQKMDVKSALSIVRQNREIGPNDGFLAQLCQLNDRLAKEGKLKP
Nonstructural protein 1, sequence (Q194T2 whole entry): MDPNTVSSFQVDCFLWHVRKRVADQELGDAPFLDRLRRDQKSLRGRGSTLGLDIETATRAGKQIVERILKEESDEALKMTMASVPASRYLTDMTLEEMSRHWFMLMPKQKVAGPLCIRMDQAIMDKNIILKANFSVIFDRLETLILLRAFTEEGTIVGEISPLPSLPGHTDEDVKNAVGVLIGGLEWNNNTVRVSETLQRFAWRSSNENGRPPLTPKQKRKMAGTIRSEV
Polyadenylate-binding protein 1, sequence (P11940 whole entry): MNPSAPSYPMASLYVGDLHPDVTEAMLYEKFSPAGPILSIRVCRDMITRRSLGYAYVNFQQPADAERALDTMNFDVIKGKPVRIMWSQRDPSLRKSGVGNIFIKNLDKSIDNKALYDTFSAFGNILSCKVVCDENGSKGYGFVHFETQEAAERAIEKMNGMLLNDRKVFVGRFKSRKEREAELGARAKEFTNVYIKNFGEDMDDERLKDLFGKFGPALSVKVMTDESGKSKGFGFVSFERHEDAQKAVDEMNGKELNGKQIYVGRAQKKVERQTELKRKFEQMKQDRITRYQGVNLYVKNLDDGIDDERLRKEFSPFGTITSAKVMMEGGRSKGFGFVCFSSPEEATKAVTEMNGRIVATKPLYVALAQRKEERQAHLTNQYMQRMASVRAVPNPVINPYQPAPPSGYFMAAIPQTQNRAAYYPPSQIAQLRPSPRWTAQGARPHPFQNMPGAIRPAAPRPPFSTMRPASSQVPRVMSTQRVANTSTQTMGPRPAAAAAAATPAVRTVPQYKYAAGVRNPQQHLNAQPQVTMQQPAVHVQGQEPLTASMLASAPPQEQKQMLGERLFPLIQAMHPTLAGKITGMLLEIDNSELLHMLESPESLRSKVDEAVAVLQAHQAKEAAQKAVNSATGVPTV

COc1ccc(S(=O)(=O)NCc2ccc(C(=O)NCCN(Cc3ccccc3)C(C)C)cc2)cc1
active: IC50 (Mu-type opioid receptor) 9.6 µM | IC50 [1] 0.806 µM | IC50 [3] 2.63 µM
inactive: IC50 [2] > 32 µM

COc1cccc(-c2sc3ccccc3c2-c2ccc(OCCN(C)C)cc2)c1
inactive: IC50 [5] > 20 µM
active: EC50 (Melanocortin receptor 4) > 3.3 µM | AC50 [4] 15.2 µM | EC50 (Integrin alpha-4) 29.1 µM | AC50 [6] 13 µM | AC50 [7] 8.01 µM | AC50 [8] 3.29 µM | AC50 [9] 7.82 µM | AC50 [10] 11.7 µM

CC(C)(C)c1cc(C(=S)NCc2ccc(F)c(C(F)(F)F)c2)cc(C(C)(C)C)c1
active: IC50 [11] 27 µM | IC50 [12] 67.4 µM

CC(/C=C/c1ccco1)=N/NC(=O)Cc1cccs1
active: IC50 [13] 23.6 µM | IC50 [14] 18.9 µM | IC50 [16] 24.6 µM
inactive: IC50 [15] > 100 µM

Cc1ccc(/C=N/NC2=NC(=O)C(CC(=O)Nc3ccc(Cl)cc3)S2)o1 (stereo not given)
active: EC50 (T-cell) 15.2 µM

CCN(CC)c1ccc(/C=C/c2ccc3ccc(OC)cc3[n+]2CC)cc1
active: EC50 [17] 5.54 µM | IC50 (HEK293 [18]) 1.9 µM | EC50 [19] < 0.03 µM | EC50 [20] < 0.1 µM | EC50 [22] 6.78 µM | AC50 [24] 17.4 µM | IC50 (Nonstructural protein 1) 17.3 µM | IC50 (HEK293 [25]) 2.2 µM | EC50 (cells) 0.023 µM | EC50 [28] 2.25 µM | EC50 (BJ [29]) 2.82 µM | AC50 (Protein S100-A4) 1.12 µM | EC50 (HEK293 [32]) 3.64 µM | IC50 (HEK293 [33]) 9.34 µM
inactive: IC50 [23] > 80 µM | IC50 (HEK293 [27]) > 20 µM | EC50 [31] > 32 µM
inconclusive: EC50 (BJ [21]) 0.892 µM | EC50 (BJ [26]) 0.732 µM | EC50 [30] > 160 µM
